The text below walks through data of patent publication US9109004B2, “Progesterone receptor antagonists” (Bayer Intellectual Property GmbH, priority 2010, dated 2015).

Molecules are shown by their SMILES.

The assay deals with T1, human progesterone receptor A (Homo sapiens, UniProt P06401).
T1 construct: expressed in transfected cells; host or cells: SK-N-MC human neuroblastoma cells, stably transfected
T1 sequence (P06401 1-769 isoform P06401-2): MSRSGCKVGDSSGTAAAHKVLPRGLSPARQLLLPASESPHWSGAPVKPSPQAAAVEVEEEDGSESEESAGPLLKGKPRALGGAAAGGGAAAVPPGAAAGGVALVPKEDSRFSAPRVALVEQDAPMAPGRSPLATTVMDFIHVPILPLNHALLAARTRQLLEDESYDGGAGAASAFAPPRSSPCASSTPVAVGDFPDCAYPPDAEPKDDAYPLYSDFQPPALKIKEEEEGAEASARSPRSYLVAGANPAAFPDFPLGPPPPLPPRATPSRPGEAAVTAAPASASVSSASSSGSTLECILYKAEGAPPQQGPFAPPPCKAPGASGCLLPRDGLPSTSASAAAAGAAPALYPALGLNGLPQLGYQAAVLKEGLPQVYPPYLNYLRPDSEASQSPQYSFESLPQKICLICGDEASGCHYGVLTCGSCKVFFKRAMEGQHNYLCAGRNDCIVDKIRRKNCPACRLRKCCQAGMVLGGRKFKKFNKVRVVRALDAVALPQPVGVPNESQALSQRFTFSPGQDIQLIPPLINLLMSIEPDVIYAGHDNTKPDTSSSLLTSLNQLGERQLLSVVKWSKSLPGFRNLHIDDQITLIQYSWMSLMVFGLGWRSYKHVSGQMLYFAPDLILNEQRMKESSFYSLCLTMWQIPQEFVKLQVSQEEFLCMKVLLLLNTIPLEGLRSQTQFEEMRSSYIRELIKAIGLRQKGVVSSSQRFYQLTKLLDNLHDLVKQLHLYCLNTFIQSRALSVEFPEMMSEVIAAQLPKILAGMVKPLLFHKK
Briefly: Progesterone-receptor-antagonistic action in stably transfected SK-N-MC cells, MTV-LUC reporter (PR-A). The format is cell-based. Conditions: antagonistic potency vs 0.1 nmol/l promegestone, 24 hours, luciferase. The method, boiled down:
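SK-N-MC neuroblastoma cells stably expressing human PR-B or PR-A plus MMTV-LUC reporter, treated 24 h with 0.1 nmol/l promegestone plus test compound at 0.01 nmol/l–1 μmol/l. Luciferase in lysates read as RLU; values as % efficacy and IC50.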
For the compound `CN(CCc1cccnc1)C(=O)c1ccc([C@H]2C[C@@]3(C)[C@@H](CC[C@@]3(O)C(F)(F)C(F)(F)F)[C@@H]3CCC4=CC(=O)CCC4=C32)cc1` [Example 72, 4-[(11β,17β)-17-hydroxy-3-oxo-17-(pentafluoroethyl)estra-4,9-dien-11-yl]-N-methyl-N-[2-(pyridin-3-yl)ethyl]benzamide], the concentration for half-maximal inhibition (IC50) was found to be 1.4 nM. This lies in the single-digit nanomolar range.

As for `C[C@]12C[C@H](c3ccc(C(=O)Nc4ccccc4C(=O)O)cc3)C3=C4CCC(=O)C=C4CC[C@H]3[C@@H]1CC[C@@]2(O)C(F)(F)C(F)(F)F` [Example 76, 2-({4-[(11β,17β)-17-Hydroxy-3-oxo-17-(pentafluoroethyl)estra-4,9-dien-11-yl]benzoyl}amino)benzoic acid], 0.5 nM corresponded to half-maximal inhibition (IC50).

As for `C[C@]12C[C@H](c3ccc(C(=O)Nc4cccc(C(=O)O)c4)cc3)C3=C4CCC(=O)C=C4CC[C@H]3[C@@H]1CC[C@@]2(O)C(F)(F)C(F)(F)F` [Example 77, 3-({4-[(11β,17β)-17-Hydroxy-3-oxo-17-(pentafluoroethyl)estra-4,9-dien-11-yl]benzoyl}amino)benzoic acid], the IC50 is 140 nM. This IC50 is about 280-fold higher than that of the compound before.

Take `C[C@]12C[C@H](c3ccc(C(=O)Nc4ccc(C(=O)O)cc4)cc3)C3=C4CCC(=O)C=C4CC[C@H]3[C@@H]1CC[C@@]2(O)C(F)(F)C(F)(F)F` [Example 78, 4-({4-[(11β,17β)-17-Hydroxy-3-oxo-17-(pentafluoroethyl)estra-4,9-dien-11-yl]benzoyl}amino)benzoic acid]: the midpoint of inhibition, the IC50, lay at 9.6 nM.

Usually IC50 stands for the concentration at which inhibition is half-maximal. A low value points to inhibition by little substance.
